This note sets out measurements from patent US20230167088A1, “1-PYRAZINYLPYRAZOLYL-3-OXYALKYL ACIDS AND THEIR DERIVATIVES, AND THEIR USE FOR CONTROL OF UNDESIRED PLANT GROWTH” (BAYER AKTIENGESELLSCHAFT, priority 2020, published 2023).

Molecules are shown by their SMILES.

The subject of assay [1] is ECHCG. Briefly: Herbicidal post-emergence action 1a (greenhouse pots, visual rating). The note with it: rated visually about 3 weeks after treatment, 100% = plants have died, 0% = like control plants. It counts as in vivo, Echinochloa crus-galli. A digest of the protocol:
(§1)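 Weeds and crops sown in sandy loam in greenhouse pots were sprayed post-emergence at the one-leaf stage (2–3 weeks after sowing) with WP or EC formulations plus 0.5% additive at 600 l/ha water, 320 and/or 80 g/ha. About 3 weeks later damage was rated visually against untreated controls (0% = no effect, 100% = dead).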

The test system of assay [2] is SETVI. The assay is described as above. It counts as in vivo, Setaria viridis. The note with it: rated visually about 3 weeks after treatment, 100% = plants have died, 0% = like control plants. A digest of the protocol: as §1
Assay [3] relates to POAAN. Briefly: Herbicidal post-emergence action 1b (twin sowing, 1280 g/ha). It counts as in vivo, Poa annua. The note with it: dosage 1280 g/ha, visual rating about 3 weeks after treatment. The procedure, abridged: (§2)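 Twin-sown mono- and dicot weeds in sandy loam were sprayed post-emergence at the one-leaf stage, 2–3 weeks after sowing, with WP or EC formulations in water plus 0.5% additive at 600 L/ha. After about 3 weeks in the greenhouse, activity was rated visually against untreated controls (0% = like control, 100% = plants dead).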

Assay [4] relates to MATIN. Described as above. The note with it: dosage 1280 g/ha, visual rating about 3 weeks after treatment. In kind it is in vivo, Matricaria inodora. A digest of the protocol:
as §2

The subject of assay [5] is DIGSA. Put plainly: Herbicidal pre-emergence action 2a (greenhouse pots, visual scoring). The note with it: dosage 320 g/ha, visual scoring after about 3 weeks. It counts as in vivo, Digitaria sanguinalis. The procedure, abridged:
(§3)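 Percent effect (0% like control, 100% plants died) was scored by eye roughly 3 weeks post-application. Formulated compound went onto the soil covering freshly sown seeds in water at 600 l/ha with 0.5% additive; dose 320 g/ha and/or 80 g/ha.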

The test system of assay [6] is ECHCG. Described as above. In kind it is in vivo, Echinochloa crus-galli. The note with it: dosage 320 g/ha, visual scoring after about 3 weeks. The procedure, abridged:
as §3

Assay [7] relates to LOLRI. The assay is described as above. It counts as in vivo, Lolium rigidum. The note with it: dosage 320 g/ha, visual scoring after about 3 weeks vs untreated controls. The procedure, abridged: as §3
Assay [8] concerns VIOTR. The description is as above. In kind it is in vivo, Viola tricolor. The note with it: dosage 320 g/ha, visual scoring after about 3 weeks vs untreated controls. The procedure, abridged: as §3
Assay [9] concerns AMARE. Put plainly: Herbicidal pre-emergence action 2b (doubly sown, 1280 g/ha). It counts as in vivo, Amaranthus retroflexus. The note with it: doubly sown pots, dosage 1280 g/ha, visual scoring after about 3 weeks. The procedure, abridged: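 Weed seeds sown in sandy loam, two species per pot, covered with soil; compounds as WP or EC applied to soil surface as aqueous suspension/emulsion with 0.5% additive at 600 L/ha water. Greenhouse growth; visual % activity vs untreated controls after about 3 weeks (100% = dead, 0% = like control).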

For assay [10], the system named is harmful plants. Briefly: Herbicidal pre-emergence action 2a, summary across species. In kind it is in vivo. The note with it: Tables B1 to B15 (320 g/ha and/or 80 g/ha). The procedure, abridged:
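Pre-emergence greenhouse test: WP or EC formulations sprayed onto soil covering sown weed and crop seeds, 600 l/ha water with 0.5% additive, at 320 g/ha and/or 80 g/ha. Damage scored visually after about 3 weeks as % versus untreated control (100% = plants dead).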

Assay [11] deals with ABUTH. Put plainly: Herbicidal post-emergence action 1a (greenhouse pots, visual rating). In kind it is in vivo, Abutilon theophrasti. The note with it: visual rating about 3 weeks after treatment. The procedure, abridged: as §1

On to `C[C@@H](Oc1nn(-c2cnccn2)c(-c2cccc(F)c2)c1Br)C(=O)O` [Example I-48], for which, in assay [1] (Dosage 80 g/ha), the “Post-emergence action against ECHCG in %” value came to 90%. Further, in assay [2] (Dosage 80 g/ha), the “Post-emergence action against SETVI in %” value was found to be 80%. For the same compound, the “Post-emergence action at 1280 g/ha against POAAN in %” value in [3] turned out to be 100%. Moreover, the “Post-emergence action at 1280 g/ha against MATIN in %” value in assay [4] amounted to 100%. In addition, the “Pre-emergence action against DIGSA in %” value in [5] came to 100%. In addition, the “Pre-emergence action against ECHCG in %” value in assay [6] is recorded as 100%. Besides, the “Pre-emergence action against LOLRI in %” value in [7] is reported as 100%. Also, the “Pre-emergence action against VIOTR in %” value in assay [8] came out at 100%. The “Pre-emergence action at 1280 g/ha against AMARE in %” value in assay [9] amounted to 100%. In addition, the “herbicidal efficacy against harmful plants in the case of pre-emergence treatment (in words)” value (“herbicidal efficacy” below) in assay [10] is “good herbicidal efficacy”.

As for `COC(=O)[C@@H](C)Oc1nn(-c2cnccn2)c(-c2ccc(F)c(F)c2)c1C#N` [Example I-46], the “Post-emergence action at 1280 g/ha against POAAN in %” value in assay [3] is 100%. The “Post-emergence action at 1280 g/ha against MATIN in %” value in assay [4] stood at 90%. For the same compound, in assay [5], the “Pre-emergence action against DIGSA in %” value is listed as 100%. In addition, the “Pre-emergence action against ECHCG in %” value in [6] worked out at 100%. In addition, the “Pre-emergence action against LOLRI in %” value in [7] is given as 100%. Besides, the “Pre-emergence action against VIOTR in %” value in [8] was found to be 100%. For the same compound, the “Pre-emergence action at 1280 g/ha against AMARE in %” value in assay [9] was determined as 100%. Besides, in assay [10], the “herbicidal efficacy” value was “good herbicidal efficacy”.

Turning to `COC(=O)COc1nn(-c2cnccn2)c(-c2ccc(F)c(F)c2)c1Br` [Example I-15], in assay [1] (Dosage 320 g/ha), the “Post-emergence action against ECHCG in %” value stood at 90%. Further, the “Post-emergence action against SETVI in %” value in assay [2] (Dosage 80 g/ha) and in [2] (Dosage 320 g/ha) was 90% each time. In addition, the “Post-emergence action against ABUTH in %” value in assay [11] (dosage 80 g/ha) and in assay [11] (dosage 320 g/ha) was 80% each time. The “Pre-emergence action against DIGSA in %” value in assay [5] is on record as 100%. Further, the “Pre-emergence action against ECHCG in %” value in assay [6] came to 100%. In addition, the “Pre-emergence action against LOLRI in %” value in [7] stood at 100%. Also, the “Pre-emergence action against VIOTR in %” value in assay [8] came to 100%. Moreover, in [10], the “herbicidal efficacy” value was “good herbicidal efficacy”.

In the case of `COC(=O)COc1nn(-c2cnccn2)c(-c2cncc(F)c2)c1Br` [Example I-07], the “Post-emergence action against ECHCG in %” value in assay [1] (Dosage 80 g/ha) came to 80%; in [1] (Dosage 320 g/ha), 90%. The “Post-emergence action against SETVI in %” value in [2] (Dosage 80 g/ha) and in [2] (Dosage 320 g/ha) was 80% in each case. Also, the “Post-emergence action against ABUTH in %” value in assay [11] (dosage 80 g/ha) stood at 80%; in assay [11] (dosage 320 g/ha) it was 90%. Moreover, the “Pre-emergence action against DIGSA in %” value in [5] is listed as 100%. For the same compound, the “Pre-emergence action against ECHCG in %” value in assay [6] came to 100%. Besides, in assay [7], the “Pre-emergence action against LOLRI in %” value worked out at 100%. Further, in assay [8], the “Pre-emergence action against VIOTR in %” value is recorded as 100%. In addition, the “herbicidal efficacy” value in assay [10] was “good herbicidal efficacy”.

As to `COC(=O)C(C)Oc1nn(-c2cnccn2)c(-c2ccc(F)nc2)c1Br` (racemic) [Example I-12], in assay [1] (Dosage 320 g/ha), the “Post-emergence action against ECHCG in %” value came out at 80%. The “Post-emergence action against SETVI in %” value in assay [2] (Dosage 320 g/ha) came to 80%. The “Post-emergence action against ABUTH in %” value in assay [11] (dosage 320 g/ha) is 80%. The “Post-emergence action at 1280 g/ha against POAAN in %” value in [3] is 100%. The “Post-emergence action at 1280 g/ha against MATIN in %” value in assay [4] worked out at 90%. For the same compound, the “Pre-emergence action against DIGSA in %” value in assay [5] stood at 100%. For the same compound, the “Pre-emergence action against LOLRI in %” value in assay [7] was 100%. The “Pre-emergence action against VIOTR in %” value in assay [8] worked out at 100%. Moreover, the “Pre-emergence action at 1280 g/ha against AMARE in %” value in assay [9] is recorded as 100%. The “herbicidal efficacy” value in assay [10] was “good herbicidal efficacy”.
